Paper PMC9961069 (Metabolites, 2023)
Blank lines part the entries; values can stand above or below the compound they belong to.

Legend:
MDA-MB-231 cells [1] = test: LC/MS-based metabolite profiling; type: cell-based, Human; details: 24 h
Method: For characterization by mass spectrometry, MDA-MB-231 cells were seeded at a density of 3 × 10^5 cells per well in 6-well plates. […] DMSO only and DMSO + folinic acid controls were also performed. Per condition, biological quadruplicates of approximately one million cells were harvested, washed briefly with 1 mL of 0.9% NaCl (prepared in LC/MS-grade water Fisher Scientific W6500), and extracted in 500 μL prechilled extraction buffer (80% LC/MS-grade methanol, 20% 125 mM ammonium acetate, 12.5 mM sodium ascorbate prepared in LC/MS-grade water and supplemented with aminopterin (catalog no.: 16.330; Schircks Laboratories) and isotopically labeled internal standards (17 amino acids and reduced glutathione [Cambridge Isotope Laboratories; MSK- A2-1.2 and CNLM-6245-10])) using a cell scraper. After centrifugation for 10 min, 4 °C, at maximum speed on a benchtop centrifuge (Eppendorf), the cleared supernatant was transferred to a new tube and dried using a nitrogen dryer (Reacti-Vap™ Evaporator, Thermo Fisher Scientific, TS-18826) while on ice. Once the drying process was completed, samples were reconstituted in 50 µL QReSS water (Cambridge Isotope Laboratories, MSK-QRESS-KIT) by brief sonication in a 4 °C water bath. Extracted metabolites were spun for 3 min, 4 °C, at maximum speed on a bench-top centrifuge, and cleared supernatant was transferred to LC/MS microvials (National Scientific, C5000-45B). Three microliters of each sample were pooled and serially diluted 3- and 10-fold to be used as quality controls throughout the run of each batch. Unlabeled QReSS metabolites (Cambridge Isotope Laboratories, MSK-QReSS-US-KIT) and unlabeled amino acid mix standard (Cambridge Isotope Laboratories, MSK-A2-US-1.2) were also included in the run to ensure high-quality metabolomics results.
One microliter (equivalent to 2 × 10^4 cells) of the reconstituted sample was injected into a ZIC-pHILIC 150 × 2.1 mm (5 µm particle size) column (EMD Millipore) operated on a Vanquish™ Flex UHPLC Systems (Thermo Fisher Scientific, San Jose, CA, USA). Chromatographic separation was achieved using the following conditions: buffer A was acetonitrile; buffer B was 20 mM ammonium carbonate, 0.1% ammonium hydroxide. Gradient conditions were: linear gradient from 20% to 80% B; 20–20.5 min: from 80% to 20% B; 20.5–28 min: hold at 20% B. The column oven and autosampler tray were held at 25 °C and 4 °C, respectively.
Mass spectrometry data acquisition was performed using a QExactive benchtop orbitrap mass spectrometer equipped with an Ion Max source and a HESI II probe (Thermo Fisher Scientific, San Jose, CA, USA) and was performed in positive and negative ionization mode in a range of m/z = 70–1000, with the resolution set at 70,000, the AGC target at 1 × 10^6, and the maximum injection time (Max IT) at 20 msec. For nucleotide tSIM scans, the resolution was set at 70,000, the AGC target was 1 × 10^5, and the max IT was 100 msec.
Manual curation and integration of chromatographic peaks were performed with TraceFinder 4.1 (Thermo Fisher Scientific, Waltham, MA, USA) using a 5 ppm mass tolerance and referencing an in-house library of chemical standards. Data from TraceFinder were further consolidated and normalized with an in-house R script: (https://github.com/FrozenGas/KanarekLabTraceFinderRScripts/blob/main/MS_data_script_v2.4_20221018.R (accessed on 22 November 2022)). Briefly, this script performs normalization and quality control steps: (1) extracts and combines the peak areas from TraceFinder output .csvs; (2) calculates and normalizes to an averaged factor from all mean-centered chromatographic peak areas of isotopically labeled amino acids internal standards within each sample; (3) filters out low-quality metabolites based on user inputted cut-offs calculated from pool reinjections and pool dilutions; (4) calculates and normalizes for biological material amounts based on the total integrated peak area values of high-confidence metabolites. […]

[2] = tested on: STAT3 transcriptional activity in U3A STAT3 luciferase reporter cell line; test: STAT3 luciferase reporter assay; type: cell-based; details: 0.02–20 μM, OSM 10 ng/mL
Method: The STAT3-dependent luciferase reporter assay was performed as previously reported. One day prior to the assay, the U3A STAT3 luciferase reporter cell line was seeded in a 96-well plate at 8000 cells per well. Cells were then incubated with compounds at the indicated concentration, and each well was treated with either media control or stimulated with 10 ng/mL oncostatin M (OSM) and incubated for six hours at 37 °C. Luciferase activity was quantified using the Bright-Glo Luciferase Assay system (Promega) and a Luminoskan Ascent Luminometer (Labsystems). Collected luminescence readings were normalized to DMSO-treated controls. Stimulation with (+OSM) gave luminescence values around 2.5 times that of the unstimulated control (−OSM). Quadruplicates were averaged and plotted with error bars representing standard deviation. Each condition was performed in quadruplicate on two separate occasions (n = 2) with representative data shown. Statistical significance was determined using Ordinary one-way ANOVA with a Dunnett multiple comparison test.

[3] = tested on: T1, DHFR in MDA-MB-468 lysates; test: Lysate cellular thermal shift assay (CETSA) for DHFR; type: binding, Human; details: 10 μM, MDA-MB-468 lysate, 45 °C for 3 min, DMSO at 37 °C = 100%
T1 construct: reactions containing 55 μg MDA-MB-468 lysate; endogenous in cells; host or cells: MDA-MB-468
Method: Trypsinized MDA-MB-468 cells were harvested by centrifugation at 200× g for 5 min and washed with PBS supplemented with EDTA-free PIC (Roche) and flash frozen for storage at −80 °C. Cells were lysed by resuspension in 60 μL PBS/PIC per 1 × 10^6 cells. Cells were lysed by three freeze-thaw cycles, where cells were frozen in an ethanol/dry ice bath for 3 min, immediately followed by incubation in a 37 °C water bath for 3 min. The insoluble fraction was removed by centrifugation at 20,000× g for 20 min at 4 °C. The supernatant containing the soluble lysate was removed and saved for subsequent steps.
After incubation, each reaction was transferred to a 1.5 mL tube and centrifuged at 20,000× g for 20 min at 4 °C to remove the insoluble proteins. After centrifugation, 18 μL of supernatant was carefully removed from each reaction, without disturbing any pelleted aggregates, and added to 4.5 μL of 5× SDS-PAGE loading buffer. 11 μL of each reaction was loaded onto a gel in duplicate, and proteins were detected by Western blot (as described below). Resulting band densities were fit to the Boltzmann equation to determine the melting temperature (Tm):(3) y=Bottom+Top−Bottom/1+e^Tm−x/Slope
To rescue the thermal degradation of DHFR by inhibitors, samples containing 10 μM inhibitor, 55 μg lysate, and 1% DMSO in a total volume of 28 μL in DHFR buffer were prepared in PCR tubes and incubated at room temperature for 20 min. Two DMSO-only controls were also prepared. Reactions containing inhibitors were then incubated at 45 °C for 3 min. One DMSO-only control was also heated at 45 °C for 3 min, and the other control was heated at 37 °C for 3 min. The soluble protein fraction was separated from the insoluble proteins by centrifugation, and proteins were separated by SDS-PAGE, as described above, and analyzed via Western blot, as described below. Each experiment was repeated 3 times.
Proteins were electrophoretically separated on a 10% gel, and proteins were transferred to a methanol-activated PVDF membrane using the Trans-Blot Turbo transfer system (Bio-Rad) for 7 min at 1.3 A and 25 V in Trans-Blot Turbo transfer buffer (Bio-Rad). Membranes were blocked with 5% skim milk w/v in TBS-T (20 mM Tris, 150 mM NaCl, 0.05% Tween-20) for 1 h at room temperature. […] The horseradish peroxidase (HRP)-linked anti-mouse IgG secondary antibody (NA931, Cytiva; 1:3000) was added for 1 h at room temperature in 5% skim milk w/v in TBS-T. Signal was detected by adding Immobilon Forte Western HRP Substrate (Millipore), and chemiluminescence was captured on a Sapphire Biomolecular Imager (Azure Biosystems). Band densities were determined using ImageJ (Fiji). The band intensity of DHFR was normalized to the thermostable loading control SOD1 [22].

MDA-MB-468 cells = test: Resazurin viability assay with or without folinic acid, MDA-MB-468; type: cell-based, Human; details: 72 h; for Relative Viability (%) – Inhibitor + FA Treatment: MDA-MB-468, 10 μM + 300 μg/mL folinic acid; for Relative Viability (%) – Inhibitor Alone: MDA-MB-468, 10 μM, relative to DMSO
Method: (§1) The incorporation and metabolism of resazurin to resorufin was used to monitor cell viability. MDA-MB-468, MCF7, and MDA-MB-231 cells were grown in 96-well plates with a total of 5000 cells per well in a total volume of 180 μL for 24 h, as described above. After 24 h of growth, cells were treated with increasing concentrations of compounds (0.0457–100 μM) for 72 h. A vehicle control was also performed. […] The volume of treatment added to each well was 20 μL. For folinic acid rescue experiments, 5000 cells were treated with 10 μM compound with or without 300 μg/mL folinic acid (Supelco). After 72 h of treatment, resazurin was added to a final concentration of 44 μM, and cells were incubated for an additional 4 h at 37 °C. The fluorescence of resorufin was monitored on a Synergy MX microplate reader (BioTek) using an excitation wavelength of 540 nm and an emission wavelength of 600 nm. Percent viability relative to the DMSO control was determined. Each treatment was performed in triplicate, and each individual experiment was repeated three times (n = 3).

purified human DHFR = target: T2, purified human DHFR (Homo sapiens, UniProt P00374); test: DHFR enzymatic inhibition assay (NADPH absorbance at 340 nm); type: biochemical; details: 200 nM DHFR, 137.5 μM DHF, 125 μM NADPH; n = 2; read-out: IC50
T2 construct: made in house; host or cells: E. coli BL21 (DE3) T1R pRARE2, pNIC-Bsa4 plasmid
T2 sequence (P00374 1-187): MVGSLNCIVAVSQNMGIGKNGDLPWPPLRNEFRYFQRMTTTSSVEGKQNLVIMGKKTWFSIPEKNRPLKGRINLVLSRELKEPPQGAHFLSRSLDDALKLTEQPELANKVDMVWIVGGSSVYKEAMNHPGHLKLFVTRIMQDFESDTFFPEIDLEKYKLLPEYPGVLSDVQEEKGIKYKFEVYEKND
Method: Working stocks of each inhibitor were created so that the final concentration of DMSO in each reaction was 2% in a final reaction volume of 100 μL. […] Reactions were prepared on ice in 384-well plates. […] Consumption of NADPH by measuring absorbance at 340 nm was used to monitor the progress of the reaction. Readings were taken every 5 min for 1 h at 37 °C using a Synergy MX microplate reader (BioTek).
Percent inhibition relative to the no-inhibitor control was determined using Equation (1). (1) % Inhibition=A340Inhibitor−A340DMSO Control/A340No DHFR−A340DMSO Control×100
Percent inhibition data were then fit to the four-parameter logistic model (Equation (2)) in GraphPad Prism 9.4.1 to determine half-maximal inhibitory concentrations (IC50):(2) y=Bottom+Top−Bottom/1+IC50/x^Hill slope where y represents the percent inhibition, x represents the concentration of inhibitor (μM), the bottom and top represent the bottom and top plateaus, and the Hill slope represents the slope factor. Each experiment contained duplicates of each sample, and each experiment was performed 2 times (n = 2). An ordinary one-way ANOVA was used to test for statistical significance between treatments.

MCF-7 cells = test: Resazurin viability assay with or without folinic acid, MCF-7; type: cell-based, Human; details: 72 h; for Relative Viability (%) – Inhibitor + FA Treatment: MCF-7, 10 μM + 300 μg/mL folinic acid; for Relative Viability (%) – Inhibitor Alone: MCF-7, 10 μM, relative to DMSO; for Rescue of viability impairment by folinic acid: MCF-7, 10 μM ± 300 μg/mL FA
Method: as §1

MDA-MB-231 cells [4] = test: Resazurin viability assay with or without folinic acid, MDA-MB-231; type: cell-based, Human; details: 72 h; for Relative Viability (%) – Inhibitor + FA Treatment: MDA-MB-231, 10 μM + 300 μg/mL folinic acid; for Relative Viability (%) – Inhibitor Alone: MDA-MB-231, 10 μM, relative to DMSO
Method: as §1

SMILES: CN(Cc1cnc2nc(N)nc(N)c2n1)c1ccc(C(=O)N[C@@H](CCC(=O)O)C(=O)O)cc1 [MTX, methotrexate]
Orotate levels with FA supplementation (MDA-MB-231 cells [1]; 10 μM + 300 μg/mL FA): returned orotate to vehicle control levels | AICAR levels (MDA-MB-231 cells [1]; 10 μM, inhibitor alone): failed to increase AICAR levels in a statistically significant manner | Orotate levels (MDA-MB-231 cells [1]; 10 μM, inhibitor alone): decreased or statistically insignificant changes in orotate levels | UDP level (MDA-MB-231 cells [1]; 10 μM, inhibitor alone versus DMSO): not upon treatment with MTX and 127159 alone | Inhibition of STAT3-dependent luciferase activity [2]: potent inhibition of luciferase activity | Normalized Band Density (%) of soluble DHFR [3]: greater than 100% | Normalized Band Density (%) of soluble DHFR ([3]; listed as Methotrexate): 123.37 ± 73.5%

IC50 (purified human DHFR): 8.6 ± 2.7 µM
SMILES: CCc1nc(N)nc(N)c1-c1ccc(Cl)c(Cl)c1 [compound 3062, etoprine]
Relative Viability (%) – Inhibitor + FA Treatment (MDA-MB-468 cells): 81.08 ± 13.2% | Relative Viability (%) – Inhibitor Alone (MDA-MB-468 cells): 65.38 ± 1.3% | Relative Viability (%) – Inhibitor + FA Treatment (MCF-7 cells): 100.10 ± 8.2% | Relative Viability (%) – Inhibitor Alone (MCF-7 cells): 65.16 ± 9.0% | Normalized Band Density (%) of soluble DHFR [3]: 83.56 ± 52.1% | Relative Viability (%) – Inhibitor + FA Treatment (MDA-MB-231 cells [4]): 65.52 ± 15.0% | Relative Viability (%) – Inhibitor Alone (MDA-MB-231 cells [4]): 52.76 ± 12.1%

SMILES: CC1(C)N=C(N)N=C(N)N1c1ccc(Cl)c(Cl)c1 [compound 3077]
Rescue of viability impairment by folinic acid (MCF-7 cells): small yet statistically significant rescue

SMILES: CCS(=O)(=O)O.CN(C)C(=O)c1cccc(COc2ccc(N3C(N)=NC(N)=NC3(C)C)cc2Cl)c1 [compound 139105, triazinate]
Relative Viability (%) – Inhibitor + FA Treatment (MDA-MB-468 cells): 81.38 ± 16.9% | Rescue of viability impairment by folinic acid (MDA-MB-468 cells; MDA-MB-468, 10 μM ± 300 μg/mL FA): statistically significant rescue | Relative Viability (%) – Inhibitor Alone (MDA-MB-468 cells): 57.09 ± 8.0% | Relative Viability (%) – Inhibitor + FA Treatment (MCF-7 cells): 82.83 ± 9.7% | Rescue of viability impairment by folinic acid (MCF-7 cells): not rescued | Relative Viability (%) – Inhibitor Alone (MCF-7 cells): 66.53 ± 8.1% | Normalized Band Density (%) of soluble DHFR [3]: 86.05 ± 21.9% | Relative Viability (%) – Inhibitor + FA Treatment (MDA-MB-231 cells [4]): 65.85 ± 13.7% | Rescue of viability impairment by folinic acid (MDA-MB-231 cells [4]; MDA-MB-231, 10 μM ± 300 μg/mL FA): not rescued | Relative Viability (%) – Inhibitor Alone (MDA-MB-231 cells [4]): 46.35 ± 9.0%
